{"source": "patent US9815826B2", "about": "“Crystal of azole benzene derivative” (TEIJIN PHARMA LIMITED, priority 2014, dated 2017)", "key": {"[1]": {"target": "T1, oxidase-type xanthine oxidoreductase (from buttermilk) (Bos taurus, UniProt P80457)", "T1 construct": "purchased Calbiochem Novabiochem Corp; host or cells: natural source: buttermilk", "T1 sequence (P80457 whole entry)": "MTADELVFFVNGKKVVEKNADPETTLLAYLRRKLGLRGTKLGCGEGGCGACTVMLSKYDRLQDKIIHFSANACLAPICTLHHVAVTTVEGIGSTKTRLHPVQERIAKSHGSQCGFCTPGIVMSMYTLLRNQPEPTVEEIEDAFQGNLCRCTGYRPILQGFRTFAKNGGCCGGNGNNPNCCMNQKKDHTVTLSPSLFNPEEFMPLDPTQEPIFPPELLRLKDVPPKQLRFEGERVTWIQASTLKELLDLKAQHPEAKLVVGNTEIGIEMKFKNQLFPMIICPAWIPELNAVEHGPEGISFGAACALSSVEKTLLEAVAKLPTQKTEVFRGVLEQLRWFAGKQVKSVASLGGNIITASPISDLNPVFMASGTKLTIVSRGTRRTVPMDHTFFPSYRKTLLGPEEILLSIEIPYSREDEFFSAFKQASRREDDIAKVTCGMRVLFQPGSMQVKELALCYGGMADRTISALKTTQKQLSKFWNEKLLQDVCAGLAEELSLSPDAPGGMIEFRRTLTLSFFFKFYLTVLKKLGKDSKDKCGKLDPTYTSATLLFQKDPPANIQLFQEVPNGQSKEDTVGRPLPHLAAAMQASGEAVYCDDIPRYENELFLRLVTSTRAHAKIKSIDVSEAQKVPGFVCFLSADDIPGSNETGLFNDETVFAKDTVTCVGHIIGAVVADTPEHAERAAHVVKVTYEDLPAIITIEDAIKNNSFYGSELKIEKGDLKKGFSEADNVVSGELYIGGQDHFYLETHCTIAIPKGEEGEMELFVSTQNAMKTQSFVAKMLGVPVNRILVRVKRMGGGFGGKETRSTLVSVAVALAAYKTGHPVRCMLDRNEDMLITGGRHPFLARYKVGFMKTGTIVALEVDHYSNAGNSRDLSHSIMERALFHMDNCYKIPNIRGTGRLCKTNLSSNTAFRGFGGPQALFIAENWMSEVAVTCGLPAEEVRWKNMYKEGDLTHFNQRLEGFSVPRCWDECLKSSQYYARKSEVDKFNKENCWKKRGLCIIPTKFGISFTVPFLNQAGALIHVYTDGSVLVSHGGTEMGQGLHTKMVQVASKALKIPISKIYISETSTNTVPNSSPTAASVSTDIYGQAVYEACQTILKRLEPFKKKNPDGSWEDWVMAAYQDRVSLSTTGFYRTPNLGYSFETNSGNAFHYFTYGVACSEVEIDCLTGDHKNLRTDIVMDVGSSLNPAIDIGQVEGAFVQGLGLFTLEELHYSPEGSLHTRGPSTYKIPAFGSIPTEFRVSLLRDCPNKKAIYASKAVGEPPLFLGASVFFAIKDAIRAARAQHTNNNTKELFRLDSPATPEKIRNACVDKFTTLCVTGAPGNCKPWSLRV", "experiment": "Measurement of xanthine oxidase inhibitory activity", "format": "biochemical", "settings": "xanthine substrate, absorbance 290 nm", "experimental": "After dissolving 2-[4-(2,2-dimethylpropoxy)-3-(1H-1,2,3,4-tetrazol-1-yl)phenyl]-4-methyl-1,3-thiazole-5-carboxylic acid in DMSO (produced by Sigma Corporation) so that the concentration is 20 mM, the solution was used by adjusting the concentration to a desired value for the purpose during use.\nThe evaluation of the xanthine oxidase inhibitory activity of 2-[4-(2,2-dimethylpropoxy)-3-(1H-1,2,3,4-tetrazol-1-yl)phenyl]-4-methyl-1,3-thiazole-5-carboxylic acid was conducted by the method described in the refference (Method Enzymatic Analysis, 1, 521-522, 1974) with partial modification. This evaluation was carried out by measuring oxidase-type xanthine oxidoreductase acrivity. […] After mixing the plate, absorbance at 290 nm was measured by a microplate reader SPECTRA MAX Plus 384 (manufactured by Molecular Devices, LLC). […] Immediately after mixing, the change of absorbance at 290 nm was measured for 5 minutes. The enzyme activity of DMSO solution without test compound was used as 100% control, and the inhibitory rate of the test compound was calculated. Fifty percent inhibitory concentration of the test compound on the oxidase-type xanthine oxidoreductase activity was calculated by fitting to the dose-response curve."}, "[2]": {"tested_on": "level of uric acid in the blood", "experiment": "Hypouricemic effect (normal rats), 2 hours after administration", "format": "in vivo, Sprague-Dawley male rats", "settings": "oral", "experimental": "The hypouricemic effect was confirmed for 2-[4-(2,2-dimethylpropoxy)-3-(1H-1,2,3,4-tetrazol-1-yl)phenyl]-4-methyl-1,3-thiazole-5-carboxylic acid. A test compound suspended in a 0.5% methylcellulose solution was forcibly administered to 8 to 9 week-old Sprague-Dawley male rats (Japan Charles River Co.) by oral gavage administration using a feeding needle. After the blood was collected from the tail vein at 2 hours after administration, the plasma was separated. The level of uric acid in the blood sample was measured by uricase method using an absorption spectrometer as well as a uric acid determination kit (L type Wako UA F: Wako Pure Chemical Industries, Ltd.). The percentage of hypouricemic effect was determined by the following expression: Percentage of hypouricemic effect (%)=(Level of uric acid of the control animal−Level of uric acid of the test compound-administered animal)×100/Level of uric acid of the control animal."}, "[3]": {"tested_on": "level of uric acid in the blood", "experiment": "Prolonged hypouricemic effect (normal rats), 24 hours after administration", "format": "in vivo, Sprague-Dawley male rats", "settings": "oral", "experimental": "2-[4-(2,2-dimethylpropoxy)-3-(1H-1,2,3,4-tetrazol-1-yl)phenyl]-4-methyl-1,3-thiazole-5-carboxylic acid was administered to Sprague-Dawley male rats in the same manner as in Reference Example 4. After the blood was collected from the tail vein 24 hours after administration, the plasma was separated. The level of uric acid in the blood was measured by an uricase method using an absorption spectrometer and a uric acid determination kit (L type Wako UA F: Wako Pure Chemical Industries, Ltd.). The percentage of hypouricemic effect was determined by the following expression: Percentage of hypouricemic effect (%)=(Level of uric acid of the control animal−Level of uric acid of the test compound-administered animal)×100/Level of uric acid of the control animal."}, "[4]": {"tested_on": "level of uric acid in the plasma", "experiment": "Hypouricemic effect (oxonic acid-induced hyperuricemic beagle dogs)", "format": "in vivo, beagle dog", "settings": "oral, 10 mg/kg, 8 hours after administration", "experimental": "The hypouricemic effect of 2-[4-(2,2-dimethylpropoxy)-3-(1H-1,2,3,4-tetrazol-1-yl)phenyl]-4-methyl-1,3-thiazole-5-carboxylic acid in oxonic acid-induced hyperuricmic beagle dog was confirmed. A test compound suspended in a 0.5% methylcellulose solution was administered to beagle dog (Kitayama labes) by oral gavage administration. Potassium oxonate (50 mg/kg) was subcutaneously administrated before and 4 hours after compound administration. After the blood was collected from the cephalic vein at 8 hours after administration, the plasma was separated. The level of uric acid in the plasma sample was measured by LC-MS/MS method and the percentage of hypouricemic effect was determined by the following expression: Percentage of hypouricemic effect (%)=(Level of uric acid of the control animal−Level of uric acid of the test compound-administered animal)×100/Level of uric acid of the control animal."}, "[5]": {"target": "T2, oxidase-type xanthine oxidoreductase (XO activity) (Rattus norvegicus, UniProt P22985)", "T2 construct": "frozen tissues were homogenized with potassium phosphate buffer; from tissue; host or cells: rat liver, kidney, vessel homogenate supernatants and plasma (ex vivo after oral dosing)", "T2 sequence (P22985 whole entry)": "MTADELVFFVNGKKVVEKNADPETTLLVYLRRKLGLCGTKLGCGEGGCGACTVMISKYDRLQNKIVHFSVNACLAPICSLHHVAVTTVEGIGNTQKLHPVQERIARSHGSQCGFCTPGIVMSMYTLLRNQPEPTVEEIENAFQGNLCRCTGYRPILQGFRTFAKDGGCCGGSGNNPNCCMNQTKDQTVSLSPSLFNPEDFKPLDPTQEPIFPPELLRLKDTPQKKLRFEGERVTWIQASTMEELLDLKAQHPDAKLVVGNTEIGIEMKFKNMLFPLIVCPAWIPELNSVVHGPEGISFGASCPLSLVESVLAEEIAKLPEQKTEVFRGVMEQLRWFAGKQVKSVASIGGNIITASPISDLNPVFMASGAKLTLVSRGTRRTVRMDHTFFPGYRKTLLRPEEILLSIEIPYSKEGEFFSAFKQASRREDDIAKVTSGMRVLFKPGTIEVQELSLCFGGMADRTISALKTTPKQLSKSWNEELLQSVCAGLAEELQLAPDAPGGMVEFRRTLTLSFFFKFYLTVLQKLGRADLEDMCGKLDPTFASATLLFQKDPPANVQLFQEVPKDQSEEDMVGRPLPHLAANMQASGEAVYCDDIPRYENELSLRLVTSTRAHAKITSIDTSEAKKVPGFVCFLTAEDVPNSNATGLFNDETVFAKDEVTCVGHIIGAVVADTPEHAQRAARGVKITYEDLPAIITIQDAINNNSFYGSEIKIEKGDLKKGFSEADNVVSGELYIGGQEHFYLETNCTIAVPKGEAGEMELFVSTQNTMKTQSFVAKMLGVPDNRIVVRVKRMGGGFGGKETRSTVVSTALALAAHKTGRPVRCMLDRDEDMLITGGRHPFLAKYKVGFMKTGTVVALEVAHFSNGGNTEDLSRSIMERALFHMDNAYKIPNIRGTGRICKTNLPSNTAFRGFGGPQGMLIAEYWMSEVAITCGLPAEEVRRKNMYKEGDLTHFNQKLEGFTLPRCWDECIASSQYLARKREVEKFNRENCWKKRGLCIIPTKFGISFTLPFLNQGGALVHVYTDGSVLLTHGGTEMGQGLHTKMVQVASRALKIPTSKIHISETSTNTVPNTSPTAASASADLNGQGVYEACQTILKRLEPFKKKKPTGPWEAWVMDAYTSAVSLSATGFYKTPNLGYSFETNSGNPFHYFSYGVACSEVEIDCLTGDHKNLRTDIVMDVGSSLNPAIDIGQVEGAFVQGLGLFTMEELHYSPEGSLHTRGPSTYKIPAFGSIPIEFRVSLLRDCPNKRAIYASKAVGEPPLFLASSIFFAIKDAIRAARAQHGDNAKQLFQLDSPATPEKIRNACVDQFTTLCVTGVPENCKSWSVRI", "experiment": "Prolonged inhibitory effect on tissue and plasma XO activity (pterin-based assay after oral dosing)", "format": "in vivo, Sprague-Dawley male rats", "settings": "about 27 hours after administration", "source_text": "(§1) For “xanthine oxidase” in the present invention, as far as this example, oxidative reaction catalyzing activities which are brought by oxidase-type xanthine oxidoreductase solely and by both oxidase-type and dehydrogenase-type xanthine oxidoreductase are distinguished. The former is “XO activity” and the latter is “XOR activity”. In “tissue XO activity”, “plasma XO activity”, “tissue XOR activity inhibition”, “tissue XOR activity inhibition” and the like, “XO activity” and “XOR activity” have the same meanings as defined above. The tissue includes liver, kidney and vessel. In addition, percentage of XO activity inhibition and that of […] in same sample are thought to be similar, according to the results below.\n(§2) The inhibitory effect of tissue XO activity, tissue XOR activity and plasma XO activity was confirmed for 2-[4-(2,2-dimethylpropoxy)-3-(1H-1,2,3,4-tetrazol-1-yl)phenyl]-4-methyl-1,3-thiazole-5-carboxylic acid. A test compound suspended in a 0.5% methylcellulose solution was forcedly administered to 7 to 9 week-old Sprague-Dawley male rats (Japan Charles River Co.) by oral gavage administration using a feeding needle. The blood was collected from the abdominal vein and tissue was collected at 24 or 27 hours after administration. Plasma sample was prepared by centrifugation.\n(§3) The tissue XO activity, the tissue XOR activity and the plasma XO activity were measured by the pterin-based assay which utilizes the reaction that pterin is oxidized by each type of xanthine oxidoreductase to produce fluorescent isoxanthopterin. In brief, frozen tissues were homogenized with potassium phosphate buffer, pH 7.4, containing 1 mM ethylenediaminetetraacetic acid (EDTA) and protease inhibitors to prepare tissue concentration as follow (liver: 25 mg/mL, kidney: 25 mg/mL, vessel: 30 mg/mL). Then the homogenates were centrifuged 12,000 rpm for 15 min at 4° C. When measured XO activity, the supernatant of tissue and plasma were respectively co-incubated with 50 μM pterin solution at 37° C. When measured XOR activity, the supernatant of tissue homogenate was co-incubated with 50 μM pterin and 50 μM methylene blue solution at 37° C. As a control, oxidase-type xanthine oxidoreductase (from buttermilk, manufactured by Calbiochem Novabiochem Corp.) was also incubated with pterin solution in the same manner. XO activity and XOR activity of the samples were determined from fluorescence intensity which normalized by the intensity value of control and protein concentration.\n(§4) The percentage of XO activity inhibition and XOR activity inhibition were determined by the following expression: Percentage of XO or XOR activity inhibition (%)=(XO or XOR activity of the control animal−XO or XOR activity of the test compound-administered animal)×100/XO or XOR activity of the control animal."}, "[6]": {"target": "T3, oxidase-type and dehydrogenase-type xanthine oxidoreductase (XOR activity) (Rattus norvegicus, UniProt P22985)", "T3 construct": "frozen tissues were homogenized with potassium phosphate buffer; from tissue; host or cells: rat liver, kidney, vessel homogenate supernatants and plasma (ex vivo after oral dosing)", "T3 sequence (P22985 whole entry)": "as above", "experiment": "Prolonged inhibitory effect on tissue XOR activity (pterin-based assay with methylene blue after oral dosing)", "format": "in vivo, Sprague-Dawley male rats", "settings": "for XOR activity inhibition compared to the control animal: 27 hours after drug administration; for XOR inhibitory activity, % of inhibition (vs. vehicle): 24 hours after administration", "source_text": "as §1, §2, §3, §4"}}}
{"smiles": "Cc1nc(-c2ccc(OCC(C)(C)C)c(-n3cnnn3)c2)sc1C(=O)O", "note": "[2-[4-(2,2-dimethylpropoxy)-3-(1H-1,2,3,4-tetrazol-1-yl)phenyl]-4-methyl-1,3-thiazole-5-carboxylic acid]", "values": [{"measurement": "IC50", "setting": "[1]", "value": "1 to 5", "unit": "nM"}, {"measurement": "Percentage of hypouricemic effect", "setting": "[2]; 1 mg/kg", "value": "≥ 50", "unit": "%"}, {"measurement": "Percentage of hypouricemic effect", "setting": "[2]; 10 mg/kg", "value": "≥ 50", "unit": "%"}, {"measurement": "Percentage of hypouricemic effect", "setting": "[3]; 3 mg/kg", "value": "≥ 40", "unit": "%"}, {"measurement": "Percentage of hypouricemic effect", "setting": "[3]; 10 mg/kg", "value": "≥ 50", "unit": "%"}, {"measurement": "Percentage of hypouricemic effect", "setting": "[4]", "value": "≥ 80", "unit": "%"}, {"measurement": "XO inhibitory activity, % of inhibition (vs. vehicle)", "setting": "[5]; rat kidney, 1 mg/kg oral", "value": "≧60%"}, {"measurement": "XO inhibitory activity, % of inhibition (vs. vehicle)", "setting": "[5]; rat kidney, 10 mg/kg oral, 10 mg/kg", "value": "≧70%"}, {"measurement": "XO inhibitory activity, % of inhibition (vs. vehicle)", "setting": "[5]; rat kidney, 10 mg/kg oral, listed as present compound, 10 mg/kg", "value": "≥ 70", "unit": "%"}, {"measurement": "XO inhibitory activity, % of inhibition (vs. vehicle)", "setting": "[5]; rat liver, 1 mg/kg oral", "value": "≧80%"}, {"measurement": "XO inhibitory activity, % of inhibition (vs. vehicle)", "setting": "[5]; rat plasma, 1 mg/kg oral, 1 mg/kg", "value": "≧25%"}, {"measurement": "XO inhibitory activity, % of inhibition (vs. vehicle)", "setting": "[5]; rat plasma, 1 mg/kg oral, listed as present compound, 1 mg/kg", "value": "≥ 25", "unit": "%"}, {"measurement": "XO inhibitory activity, % of inhibition (vs. vehicle)", "setting": "[5]; rat plasma, 10 mg/kg oral, 10 mg/kg", "value": "≧40%"}, {"measurement": "XO inhibitory activity, % of inhibition (vs. vehicle)", "setting": "[5]; rat plasma, 10 mg/kg oral, listed as present compound, 10 mg/kg", "value": "≥ 40", "unit": "%"}, {"measurement": "XOR activity inhibition compared to the control animal", "setting": "[6]; rat kidney, 1 mg/kg oral", "value": "≥ 60", "unit": "%"}, {"measurement": "XOR inhibitory activity, % of inhibition (vs. vehicle)", "setting": "[6]; rat liver, 1 mg/kg oral, 1 mg/kg", "value": "≧80%"}, {"measurement": "XOR inhibitory activity, % of inhibition (vs. vehicle)", "setting": "[6]; rat liver, 1 mg/kg oral, listed as present compound, 1 mg/kg", "value": "≥ 80", "unit": "%"}, {"measurement": "XOR activity inhibition compared to the control animal", "setting": "[6]; rat liver, 1 mg/kg oral", "value": "≥ 80", "unit": "%"}, {"measurement": "XOR inhibitory activity, % of inhibition (vs. vehicle)", "setting": "[6]; rat vessel, 1 mg/kg oral, 1 mg/kg", "value": "≧30%"}, {"measurement": "XOR inhibitory activity, % of inhibition (vs. vehicle)", "setting": "[6]; rat vessel, 1 mg/kg oral, listed as present compound, 1 mg/kg", "value": "≥ 30", "unit": "%"}, {"measurement": "XOR inhibitory activity, % of inhibition (vs. vehicle)", "setting": "[6]; rat vessel, 10 mg/kg oral, 10 mg/kg", "value": "≧50%"}, {"measurement": "XOR inhibitory activity, % of inhibition (vs. vehicle)", "setting": "[6]; rat vessel, 10 mg/kg oral, listed as present compound, 10 mg/kg", "value": "≥ 50", "unit": "%"}]}
